Literature values as cited in patent US20250228918A1, “METHODS OF CONTROLLING BODY WEIGHT AND/OR ENERGY EXPENDITURE” (Yale University, priority 2022, published 2025).

Settings: in vivo

brain penetration: penetrates well into brain
Structure (SMILES): C[C@H]1Oc2cc(cnc2N)-c2c(nn(C)c2C#N)CN(C)C(=O)c2ccc(F)cc21 [Lorlatinib]
